Measured values published in patent US10426815B2, “Prevention and treatment of itch with an MRGPR antagonist” (THE GENERAL HOSPITAL CORPORATION, priority 2015, dated 2019).
Ends that are not written are not given here.

What was measured:
[1] = target: T1, MrgA3 (mouse MrgprA3) (Mus musculus, UniProt Q91WW3); test: Calcium imaging of cells transfected with the GPCR (Table 1); type: cell-based; settings: chloroquine 100 μM (FIG. 7c)
T1 construct: expressed in transfected cells; host or cells: HeLa cells, pcDNA3.1(-)
T1 sequence (Q91WW3 1-302): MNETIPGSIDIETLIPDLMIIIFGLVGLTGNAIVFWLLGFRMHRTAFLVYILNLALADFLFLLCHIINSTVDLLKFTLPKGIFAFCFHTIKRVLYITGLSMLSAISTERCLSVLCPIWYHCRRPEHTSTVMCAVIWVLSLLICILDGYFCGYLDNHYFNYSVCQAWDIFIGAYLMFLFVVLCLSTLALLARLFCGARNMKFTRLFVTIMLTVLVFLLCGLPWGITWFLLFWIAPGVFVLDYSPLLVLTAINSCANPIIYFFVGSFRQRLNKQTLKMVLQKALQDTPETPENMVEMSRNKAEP
Experimental: (§1) Human NK1 cDNA was obtained from LIFE Technologies, PCR cloned with Xho I-Hind III ends and cloned into pcDNA3.1(−). Mouse NK2 and NK3 expression-ready vectors were obtained from […] (Piscataway, N.J.). All other Mrgprs (human MRGPRX1, human MRGPRX2, human MRGPRX3, human MRGPRX4, mouse MrgprA2a, mouse MrgprA2b, mouse MrgprA3, mouse MrgprA4, mouse MrgprA9, mouse MrgprA10, mouse MrgprB4 and mouse MrgprB5) were cloned by PCR from genomic DNAs and inserted into pcDNA3.1 (−).
(§2) 10 μg of expression vector (human MRGPRX2, mouse MrgprA1 or NK1) and 10 μl of LIPOFECTAMINE 2000 transfection reagent were diluted into 0.5 ml of DMEM and separately left at room temperature (RT) for 5 min. They were then mixed and incubated at RT for 20 minutes prior to being added to HeLa cells. HeLa cells were grown to confluence, trypsinized and 1×10^6 cells were pelleted in a 15 ml tube by centrifugation at 1000 rpm for 5 minutes. The DMEM-LIPOFECTAMINE 2000-DNA mixture (1 ml) was then added to the cell pellet, suspended and incubated at RT for 5 minutes. 2 ml of complete DMEM with 10% FBS without antibiotics were added to the tube, mixed by inverting the tube, plated into a 96-well glass bottom plate at 50,000 cells/well, and placed in a 37° C. CO2 incubator for 3 hours. HeLa cells transfected with salmon sperm DNA were plated as a control. The medium was changed after 3 hours and left in the incubator. 24 hours after transfection, the medium in the wells was removed and 100 μl of complete DMEM containing 2 μM of FURA-2 were added to each well and left at room temperature in the dark for 1 hr.
(§3) Calcium imaging was performed immediately after loading cells with Fura-2, using a ZEISS Axiovert 200M microscope platform equipped with a flipping filter wheel for ratiometric imaging. Axiovision software, version 4.6 was used for calcium image analysis of the cells excited at 340 nm and 380 nm. Agonists were added at 15 seconds after the start of the excitation procedure. Antagonists were added five minutes before imaging with the agonists. Images were taken every 5 seconds, including at zero time, during a 90 second period or longer if required. The software later analyzed all images taken during each excitation period. Ratiometric changes were measured in 10-20 cells in each individual experiment. An average of the fluorescence of the cells in each image was calculated and plotted against time in seconds.

[2] = target: T2, MrgX1 (human MRGPRX1) (Homo sapiens, UniProt Q96LB2); test: as above; type: cell-based; settings: SP 10 μM (FIG. 9); chloroquine 100 μM (FIG. 7c)
T2 construct: expressed in transfected cells; host or cells: HeLa cells, pcDNA3.1(-)
Experimental: as §1, §2, §3

[3] = system: mice (itch, scratching bouts); test: Mouse cheek model, scratching bouts; type: in vivo; settings: intradermal injection into the cheek, 10 μl
Experimental: The mouse cheek model was used to evaluate scratching behavior in Mrgpr cluster Δ−/− and NK1−/− mice. Mice used for behavioral studies were 2 to 3 months old, 20-30 g. Mice were habituated for 30 minutes/day for 3 days prior and for 15 minutes on the day of the study. 10 μl of each compound were delivered by a 31G needle to the cheek. The mice were not shaved prior to injections to avoid irritation. All experiments were performed at consistent times during the day (9:00 am to 2:00 pm) and under the same conditions and in groups of at least 7 mice. The mice were videotaped in a soundproof environment minimize distraction. Recordings were scored for the number of scratching bouts that occur over 1 minute intervals during 25 minute observation periods and the investigator was not aware of the group allocation during scoring the study and behavioral analysis. A scratching bout was initiated by lifting of the hind paw to the area of injection, and ended by returning of the hind paw to the floor or to the mouth. […]
For behavioral studies, average numbers of scratching bouts were compared across groups using one-way ANOVA. Pair-wise comparisons were performed using student t test after correcting p values for multiple comparisons using the Bonferroni procedure. For DRG studies and mast cell degranulation studies, unpaired student t-test was used. Differences were considered to be statistically significant for P<0.05. Data analysis was performed using PRISM 6.

T2 sequence (Q96LB2 whole entry): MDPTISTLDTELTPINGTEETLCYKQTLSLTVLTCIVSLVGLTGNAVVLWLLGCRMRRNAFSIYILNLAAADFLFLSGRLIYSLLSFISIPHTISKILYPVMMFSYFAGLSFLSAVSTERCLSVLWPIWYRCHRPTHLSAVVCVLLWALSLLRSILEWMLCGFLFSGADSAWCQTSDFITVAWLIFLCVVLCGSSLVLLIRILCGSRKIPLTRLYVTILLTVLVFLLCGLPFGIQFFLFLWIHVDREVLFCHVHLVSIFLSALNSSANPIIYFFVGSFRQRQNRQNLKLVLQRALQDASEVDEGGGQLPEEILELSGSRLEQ

activation of mouse MrgprA3 by the substance (in words) [1]	activation of human MRGPRX1 by the substance (in words) [2]	Molecule	provocation of itch (scratching bouts) by the injected substance, WT mice [3]
activates	activates	CCN(CC)CCCC(C)Nc1ccnc2cc(Cl)ccc12 (stereo not shown) [Chloroquine, chloroquine]	–
–	–	LL-37: antimicrobial peptide that activates MRGPRX2	don't cause itch
–	–	PAMP: PAMP peptide of the behavioral studies, length not stated (ARLDVASEFRKKWNKWALSR; ends and bridges not checked; UniProt P35318 22-41, looked up)	don't cause itch
